Laboratory results published in ChEMBL document CHEMBL3638822, “Pyrazolopyrimidine compounds and their use as PDE10 inhibitors” (2015).

Target: T1, Phosphodiesterase (Bos taurus, UniProt F1MPW5)
T1 sequence (F1MPW5 whole entry): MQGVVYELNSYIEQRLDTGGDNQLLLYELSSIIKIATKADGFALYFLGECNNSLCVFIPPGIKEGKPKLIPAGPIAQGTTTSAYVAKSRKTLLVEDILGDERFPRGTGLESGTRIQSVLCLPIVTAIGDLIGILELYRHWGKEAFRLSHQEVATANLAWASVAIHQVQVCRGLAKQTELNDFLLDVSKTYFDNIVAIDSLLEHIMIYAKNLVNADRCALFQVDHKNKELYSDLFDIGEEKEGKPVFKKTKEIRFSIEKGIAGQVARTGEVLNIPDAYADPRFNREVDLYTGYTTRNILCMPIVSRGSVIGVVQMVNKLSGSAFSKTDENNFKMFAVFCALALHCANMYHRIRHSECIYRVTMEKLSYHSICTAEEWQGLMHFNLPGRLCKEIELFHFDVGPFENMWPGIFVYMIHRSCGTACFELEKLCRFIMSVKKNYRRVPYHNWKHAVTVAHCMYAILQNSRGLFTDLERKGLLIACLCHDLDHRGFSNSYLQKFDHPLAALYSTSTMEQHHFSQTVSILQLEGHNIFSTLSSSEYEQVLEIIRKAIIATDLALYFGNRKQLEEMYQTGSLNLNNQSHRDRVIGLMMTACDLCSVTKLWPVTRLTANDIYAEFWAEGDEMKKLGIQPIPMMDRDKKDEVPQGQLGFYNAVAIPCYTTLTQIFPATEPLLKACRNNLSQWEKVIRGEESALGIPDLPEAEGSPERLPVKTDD
Assay: Inhibition Assay: The PDE assay was performed according to a modified method referred to a report of Kotera et al. (Kotera et al., Biochem. Pharmacol., vol. 60, pp. 1333-1341, 2000), by the radiolabeled nucleotide method.Specifically, the measurements of the inhibitory activities were carried out in the following method.(Method) The test compounds were dissolved in dimethyl sulfoxide (DMSO). 2 uL of the compound solution was added to 96 well plate, and the reaction mixture (20 uL of PDE enzyme solution in 50 mM Tris-HCl, pH 8.0, 40 uL of the assay buffer (50 mM Tris-HCl, pH 8.0, 2 mM MgCl2, 0.07% 2-mercaptoethanol, and 0.825 mg/mL bovine serum albumin), and 20 uL of 1 mg/mL snake venom in 50 mM Tris-HCl, pH8.0) was added to the 96 well plate. The enzyme reaction was started by adding and mixing with substrate solution of 20 L containing approximate 35 nM 3H-cAMP in 50 mM Tris-HCl, pH 8.0. The final concentration of cAMP in the reaction mixtures was 7 nM.

Q: How did the IC50 turn out when `Cc1nc2ccccc2nc1-c1cc2nc(N3CC[C@@H](F)C3)cc(NC3CC3)n2n1` was run?
A: 0.87 nM

Q: With `Cc1nc2ccccc2nc1-c1cc2nc(C3=CCCC3)cc(NC3CCOCC3)n2n1` as the compound, how does the IC50 read?
A: 0.22 nM

Q: With `CCc1nc2ccccc2nc1-c1cc2nc(N3CC[C@@H](F)C3)cc(N[C@H]3CC[C@H](OC)CC3)n2n1` as the compound, how does the IC50 read?
A: 0.39 nM

Q: With `C[C@]1(O)CC[C@H](Nc2cc(N3CC[C@@H](F)C3)nc3cc(-c4nc5ccccc5nc4C(F)(F)F)nn23)CC1` as the compound, how does the IC50 read?
A: 0.18 nM

Q: With `Cc1nc2ccccc2nc1-c1cc2nc(N3CC[C@@H](F)C3)cc(NC3CCOCC3)n2n1` as the compound, how does the IC50 read?
A: 0.83 nM

Q: With `Cc1nc2ccccc2nc1-c1cc2nc(N3CCCC3)cc(NC[C@H](O)C(F)(F)F)n2n1` as the compound, how does the IC50 read?
A: 0.13 nM

Q: Which IC50 does the source give for `Cc1nc2ccccc2nc1-c1cc2nc(N3CCC[C@H]3CO)cc(N[C@@H]3CCCOC3)n2n1` here?
A: 0.39 nM

Q: How did the IC50 turn out when `Cc1nc2c(C)cccc2nc1-c1cc2nc(N3CCCC3)cc(NC3CCOCC3)n2n1` was run?
A: 0.78 nM

Q: For `Cc1nc2ccccc2nc1-c1cc2nc(N3CCCC3)cc(CC3CCOCC3)n2n1`, which IC50 is on record?
A: 0.36 nM

Q: For `Cc1nc2ccccc2nc1-c1cc2nc(N3CCCC3)cc(N(C)C3CCOCC3)n2n1`, which IC50 is on record?
A: 0.0045 nM

Q: For `Cc1nc2ccccc2nc1-c1cc2nc(N3CC[C@@H](F)C3)cc(NC3COC3)n2n1`, which IC50 is on record?
A: 0.65 nM

Q: For `Cc1ccc2nc(C)c(-c3cc4nc(N5CCCC5)cc(N[C@@H]5CCS(=O)(=O)C5)n4n3)nc2c1`, which IC50 is on record?
A: 0.0085 nM

Q: With `CO[C@H]1CC[C@H](Nc2cc(N3CCCC3)nc3cc(-c4nc5cc(C(F)(F)F)ccc5nc4C)nn23)CC1` as the compound, how does the IC50 read?
A: 0.045 nM

Q: With `CCCN1CCC(Nc2cc(N3CCCC3)nc3cc(-c4nc5cc(C)ccc5nc4C)nn23)CC1` as the compound, how does the IC50 read?
A: 0.15 nM

Q: Which IC50 does the source give for `Cc1ccc2nc(C)c(-c3cc4nc(N5CCCC5)cc(NCCN(C)C)n4n3)nc2c1` here?
A: 0.17 nM

Q: With `Cc1nc2ccccc2nc1-c1cc2nc(N3CCCC3)cc(NC3CCOCC3)n2n1` as the compound, how does the IC50 read?
A: 0.11 nM

Q: How did the IC50 turn out when `Cc1nc2ccccc2nc1-c1cc2nc(N3CCCC3)cc(NCCC#N)n2n1` was run?
A: 0.052 nM

Q: Which IC50 does the source give for `Cc1nc2ccc(F)cc2nc1-c1cc2nc(N3CC[C@@H](F)C3)cc(N[C@H]3CC[C@](C)(O)CC3)n2n1` here?
A: 0.09 nM

Q: With `CC(=O)N1CCC(Nc2cc(N3CCCC3)nc3cc(-c4nc5cc(C)ccc5nc4C)nn23)CC1` as the compound, how does the IC50 read?
A: 0.044 nM

Q: With `Cc1nc(C)c(-c2cc3nc(N4CCCC4)cc(N(C)C4CCOCC4)n3n2)nc1C` as the compound, how does the IC50 read?
A: 0.48 nM

Q: For `Cc1nc2ccccc2nc1-c1cc2nc(N3CCCC3)cc(OC3CCOCC3)n2n1`, which IC50 is on record?
A: 0.38 nM

Q: For `Cc1nc2ccc(F)cc2nc1-c1cc2nc(N3CC[C@@H](F)C3)cc(NCC(C)(C)O)n2n1`, which IC50 is on record?
A: 0.09 nM

Q: With `Cc1nc2ccccc2nc1-c1cc2nc(N3CCCC3)cc(N3CCCC3)n2n1` as the compound, how does the IC50 read?
A: 0.57 nM

Q: How did the IC50 turn out when `Cc1nc2ccccc2nc1-c1cc2nc(N3CC[C@@H](F)C3)cc(NCC(C)(C)O)n2n1` was run?
A: 0.32 nM

Q: With `Cc1nc2ccccc2nc1-c1cc2nc(N3CC=CC3)cc(NC3CCOCC3)n2n1` as the compound, how does the IC50 read?
A: 0.2 nM

Q: How did the IC50 turn out when `Cc1nc2ccc(F)cc2nc1-c1cc2nc(N3CCCC3)cc(N[C@H]3CCCC[C@@H]3O)n2n1` was run?
A: 0.035 nM

Q: `Cc1nc2c(nc1-c1cc3nc(N4CCCC4)cc(NC4CCC(F)(F)CC4)n3n1)CCCC2` was tested. Which IC50 did it give?
A: 0.23 nM

Q: With `Cc1ccc2nc(-c3cc4nc(N5CCCC5)cc(NC5CCOCC5)n4n3)c(C)nc2c1` as the compound, how does the IC50 read?
A: 0.46 nM

Q: `Cc1ccc2nc(C)c(-c3cc4nc(N5CCC[C@H]5CO)cc(N(C5CCOCC5)C5CC5)n4n3)nc2c1` was tested. Which IC50 did it give?
A: 0.0068 nM

Q: `Cc1ccc2nc(C)c(-c3cc4nc(N5CC(O)C5)cc(NC5CCOCC5)n4n3)nc2c1` was tested. Which IC50 did it give?
A: 1.08 nM
